Literature values in patent US7645792B2, “Prodrugs of propofol, compositions and uses thereof” (XenoPort, Inc., priority 2004, dated 2010).

Details: rats, oral dosing

CC(C)c1cccc(C(C)C)c1O [propofol, 2,6-diisopropylphenol]
Administered drug undergoing first pass metabolism: approximately 90%
